Patent US5318776A, “Composition for preventing graying of the hair” (priority 1988, dated 1994)

Key:
grayed hair = experiment: Half-Head technique application to scalp of men having grayed hair; type: in vivo, men (40 to 60 years old)
Method: Then, the effects of preventing graying of the hair and restoring grayed hair to its natural color were evaluated by comparing the conditions of the portions observed before and after the application of Samples and the results obtained were listed in the following Table VIII. […]
Then, the effectiveness of the hair cream of the invention and that of Comp.

[1] = Sensory test: degree of change in smell after standing at 30° C. for 3 months;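 for Stability S.E. (Sensory Evaluation): double circle means no smell deterioration on a four-grade scale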; type: physicochemical; conditions: for Stability S.E. (Sensory Evaluation): Table V, 0.05% in hair tonic, 30° C., 3 months
Method: (§1) One month thereafter, regenerated hair was collected from a constant area and the rate (%) of generated grayed hair to all the number of hair collected was estimated. In addition, the aforementioned hair tonic type preparations were allowed to stand at 30° C. for 3 months and the residual amount of the test compounds therein was examined by liquid chromatography as well as the degree of change in smell was also evaluated by means of sensory test.
as §1, with “compositions” for “hair tonic type preparations”, “by” for “by means of”, “test. […] In addition, the abbreviation P means the averaged added molar number of ethylene oxide residues.” for “test.”

[2] = tested on: grayed hair (melanocytes); experiment: Inhibition of generation of grayed hair in stressed black mice; type: in vivo; conditions: Table V, 0.05% test compound in hair tonic, 0.1 ml twice a day, 1 month, control 17.1
Method: It is known that stress is one of the causes of graying of the hair. […] Moreover, the stability of the composition with time was also estimated.
as §1
as §1, with “compositions” for “hair tonic type preparations”, “by” for “by means of”, “test. […] In addition, the abbreviation P means the averaged added molar number of ethylene oxide residues.” for “test.”

[3] = Stability: residual amount of test compound after standing at 30° C. for 3 months, liquid chromatography; type: physicochemical; conditions: for remaining at 2190 h: read-out: Stability Residue(%)
Method: as §1
as §1, with “compositions” for “hair tonic type preparations”, “by” for “by means of”, “test. […] In addition, the abbreviation P means the averaged added molar number of ethylene oxide residues.” for “test.”

[4] = Example 6, hair tonic as in Example 3
[5] = hair tonic, Table V, 0.05% in hair tonic, 30° C., 3 months

Row | SMILES | effect of preventing graying of the hair and restoring grayed hair to its natural color (in words) (grayed hair; [4]) | quality deterioration such as giving out of bad smell ([1]; Example 6, hair tonic) | Stability S.E. (Sensory Evaluation) [1] | Rate of Grayed Hair (%) [2] | stability (in words) ([3]; Example 6, hair tonic) | Stability Residue(%) ([3]; Table V, 0.05% in hair tonic, 30° C., 3 months, 131400 min) | remaining at 2190 h [3, 5] | effect of preventing graying of the hair and restoring grayed hair to its natural color (in words) (grayed hair; Example 7, hair cream as in Example 5) | quality deterioration such as giving out of bad smell ([1]; Example 7, hair cream) | stability (in words) ([3]; Example 7, hair cream)
1 | Nc1ncnc2c1nc(SCCO)n2[C@@H]1O[C@@H]2COP(=O)([O-])O[C@H]2[C@H]1O.[Na+] [8-ethylhydroxythio cAMP-Na] | the same effect of preventing graying of the hair and restoring grayed hair to its natural color as in Example 3 | did not cause quality deterioration such as giving out of bad smell | .circleincircle. | 5.5% | stable | 99.6% |  |  |  | 
2 | Nc1ncnc2c1nc(O)n2[C@@H]1O[C@@H]2COP(=O)(O)O[C@H]2[C@H]1O [8-hydroxy cAMP-Na] | the same effect of preventing graying of the hair and restoring grayed hair to its natural color as in Example 3 | did not cause quality deterioration such as giving out of bad smell | .circleincircle. | 5.6% | stable |  | 99.7% |  |  | 
3 | CCCCOc1nc2c(N)ncnc2n1[C@@H]1O[C@@H]2COP(=O)(O)O[C@H]2[C@H]1O [8-butoxy cAMP-Na] | the same effect of preventing graying of the hair and restoring grayed hair to its natural color as in Example 3 | did not cause quality deterioration such as giving out of bad smell | .circleincircle. | 6.0% | stable |  | 99.9% |  |  | 
4 | CCOc1nc2c(N)ncnc2n1[C@@H]1O[C@@H]2COP(=O)(O)O[C@H]2[C@H]1O [8-ethoxy cAMP-Na] | the same effect of preventing graying of the hair and restoring grayed hair to its natural color as in Example 3 | did not cause quality deterioration such as giving out of bad smell | .circleincircle. | 5.3% | stable |  | 99.8% |  |  | 
5 | CCCCNc1nc2c(N)ncnc2n1[C@@H]1O[C@@H]2COP(=O)(O)O[C@H]2[C@H]1O [8-butylamino cAMP-Na] |  |  | .circleincircle. | 7.1% |  |  | 99.5% | the same effect of preventing graying of the hair and restoring grayed hair to its natural color as in Example 5 | did not cause quality deterioration such as giving out of bad smell | stable
